From patent publication US20050182065A1, “Method of stimulating hair growth” (priority 2004, published 2005)

What was measured:
[1] = system: C3H/HeN mice; assay: Telogen Conversion Assay; type: in vivo; conditions: for Results: number of days following initiation of treatment when hair growth appeared in 50% of the mice: topical once daily for 5 days, propylene glycol 30%/ethanol 70%
Source text: The Telogen Conversion Assay measures the potential of a compound (hereinafter referred to as the “test compound”) to convert mice in the resting stage of the hair growth cycle (“telogen”) to the active stage of the hair growth cycle (“anagen”). This assay takes advantage of the fact that the fur (i.e. hair) of 40-day-old C3H/HeN mice is in the telogen phase. This phase usually continues until about 75 days of age, at which point, anagen naturally occurs in these animals. In this assay, selected areas of 40-day-old mice (approximate) are shaved, contacted with a test agent, or a control, and the difference in the rate of hair growth is measured (i.e. induction of the anagen phase). The first sign of anagen is the darkening of skin color as melanocytes in the follicles start to synthesize melanin, in preparation for the production of pigmented hairs.
Female C3H/HeN mice, 7 weeks old (Charles River Laboratories, Raleigh, N.C.) were used for the study. Fur was clipped from the dorsal region of the mice prior to initiation of the study. Only mice with pink skin, a visual indication of the telogen phase, were selected for inclusion in the study.
Test compounds (from Table A) were dissolved in a vehicle consisting of propylene glycol (30%) and ethanol (70%). A test compound dissolved in vehicle, or a vehicle control (30/70 propylene glycol/ethanol, unless otherwise specified) was applied topically to the clipped dorsal region of the mice in each test group (7-10 mice) in a volume of 20 μl/cm^2. Treatments were applied once daily for 5 days.
The treatment area was observed and graded for signs of hair growth. The hair growth response was quantified by recording, for each animal, the day on which signs of hair growth first appeared over the treated area. The first sign of anagen was the darkening of skin color as melanocytes in the follicles started to synthesize melanin. The response time was measured as the number of days between initiation of treatment and when hair growth was present in 50% of the mice in a given group.
The results are reported as the number of days following initiation of treatment when hair growth appeared in 50% of the mice in a given group.

[2] = system: C3H/HeN mice; assay: Telogen Conversion Assay; type: in vivo; conditions: Experiment 8; for Results: number of days following initiation of treatment when hair growth appeared in 50% of the mice: topical once daily for 5 days, solvent polyethylene glycol 30 v/v %, ethanol 30 v/v %, transcutanol 40 v/v %, vehicle 28

For `Cn1nc(O[C@@H]2c3cc(S(=O)(=O)c4cccc(O)c4)ccc3OC(C)(C)[C@@]2(C)O)ccc1=O` [Compound #1, (3S,4R)-3,4-dihydro-4-(2,3-dihydro-2-methyl-3-oxopyridazin-6-yl)oxy-3-hydroxy-6-(3-hydroxyphenyl)sulphonyl-2,2,3-trimethyl-2H-benzo[b]pyran], the “Relative efficacy in the telogen conversion assay (summary)” value ([1]; 15 experiments, compared with the other potassium channel openers of Table A) was “showed the highest relative efficacy in the model”, the “Results: number of days following initiation of treatment when hair growth appeared in 50% of the mice” value (“Results: number … in 50% of the mice” below) ([1]; Experiment 1, 1.0 w/v %, terminated early) was >35 days and the “Induction of anagen (conclusion in words)” value (“Induction of anagen” below) ([1]; Experiment 2) was “exhibited signs of anagen sooner than those receiving Compound #6”. For the same compound, the “Results: number … in 50% of the mice” value ([1]; Experiment 2, 0.3 w/v %, vehicle 25) was 11 days, the “Results: number … in 50% of the mice” value ([1]; Experiment 2, 1.0 w/v %, vehicle 25) was 11 days and the “Results: number … in 50% of the mice” value ([1]; Experiment 3, 0.1 w/v %, terminated early) was >35 days. For the same compound, the “Results: number … in 50% of the mice” value ([1]; Experiment 3, 0.3 w/v %, terminated early) was >35 days, the “Results: number … in 50% of the mice” value ([1]; Experiment 3, 1.0 w/v %, terminated early) was >35 days and the “Results: number … in 50% of the mice” value ([1]; Experiment 4, 0.3 w/v %, vehicle >33) was 26 days. For the same compound, the “Results: number … in 50% of the mice” value ([1]; Experiment 4, 1.0 w/v %, vehicle >33) was 26 days, the “Induction of anagen” value ([1]; Experiment 4, terminated early) was “induced anagen at each of the test concentrations” and the “Results: number … in 50% of the mice” value ([1]; Experiment 5, 0.03 w/v %, vehicle >35) was >35 days. For the same compound, the “Results: number … in 50% of the mice” value ([1]; Experiment 5, 0.1 w/v %, vehicle >35) was >35 days, the “Results: number … in 50% of the mice” value ([1]; Experiment 5, 0.3 w/v %, vehicle >35) was >35 days and the “Results: number … in 50% of the mice” value ([1]; Experiment 6, 0.003 w/v %, vehicle >35) was >35 days. For the same compound, the “Results: number … in 50% of the mice” value ([1]; Experiment 6, 0.03 w/v %, vehicle >35) was >35 days, the “Results: number … in 50% of the mice” value ([1]; Experiment 6, 0.3 w/v %, vehicle >35) was 28 days and the “Induction of anagen” value ([1]; Experiment 6, terminated early, up to day 35) was “induced anagen despite the early termination of the experiment”. For the same compound, the “Results: number … in 50% of the mice” value ([1]; Experiment 7, 0.003 w/v %, vehicle 29) was 26 days, the “Results: number … in 50% of the mice” value ([1]; Experiment 7, 0.03 w/v %, vehicle 29) was 24 days and the “Results: number … in 50% of the mice” value ([1]; Experiment 7, 0.3 w/v %, vehicle 29) was 19 days. For the same compound, the “Induction of anagen” value ([1]; Experiment 7, proceeded to completion) was “induced anagen at all of the concentrations tested”, the “Results: number … in 50% of the mice” value ([1]; Experiment 8, 1.0 w/v %, vehicle >35) was 18 days and the “Results: number … in 50% of the mice” value ([1]; Experiment 9, 0.03 w/v %, terminated early) was >33 days. The “Results: number … in 50% of the mice” value ([1]; Experiment 9, 0.3 w/v %, terminated early) was >33 days, the “Results: number … in 50% of the mice” value ([1]; Experiment 9, 1.0 w/v %, terminated early) was >33 days and the “Results: number … in 50% of the mice” value ([1]; Experiment 10, 0.1 w/v %, terminated early) was >34 days. For the same compound, the “Results: number … in 50% of the mice” value ([1]; Experiment 10, 0.3 w/v %, terminated early) was >34 days, the “Induction of anagen” value ([1]; Experiment 11) was “induced anagen” and the “Results: number … in 50% of the mice” value ([1]; Experiment 11, 0.3 w/v %, vehicle 56) was 25 days. For the same compound, the “Induction of anagen” value ([1]; Experiment 12) was “did not induce anagen”, the “Results: number … in 50% of the mice” value ([1]; Experiment 12, 1.0 w/v %, vehicle 37) was 39 days and the “Induction of anagen” value ([1]; Experiment 13) was “induced anagen”. The “Results: number … in 50% of the mice” value ([1]; Experiment 13, 1.0 w/v %, vehicle 28) was 14 days, the “Induction of anagen” value ([1]; Experiment 14) was “induced anagen” and the “Results: number … in 50% of the mice” value ([1]; Experiment 14, 1.0 w/v %, vehicle 29) was 25 days. For the same compound, the “Results: number … in 50% of the mice” value ([1]; Experiment 15, 0.3 w/v %, vehicle >30) was 16 days, the “Results: number … in 50% of the mice” value ([1]; Experiment 15, 1.0 w/v %, vehicle >30) was 23 days and the “Induction of anagen” value ([1]; Experiment 15, terminated early) was “induced anagen at both of the concentrations tested”. The “Results: number … in 50% of the mice” value ([2]; 0.3 w/v %) was 21 days, the “Results: number … in 50% of the mice” value ([2]; 1.0 w/v %) was 21 days and the “Induction of anagen” value ([2]; transcutol, ethanol, polypropylene glycol vehicle) was “exhibited activity at all doses tested in this vehicle”.
